PubChem BioAssay (NCI)
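Dose response: 5 concentrations. Exposure: 48 h. Format: 96-well plates. Endpoint: linear interpolation; highest concentration if not reached. At the GI50, growth is halved. Definition used: TGI = concentration required for complete inhibition of growth.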

What was measured:
Experiment in all cases: NCI anticancer screen, dose series, 48 h
786-0 renal = tested on: 786-0 renal
A498 renal = tested on: A498 renal
A549 NSCLC = tested on: A549 NSCLC
ACHN renal = tested on: ACHN renal
BT-549 breast = tested on: BT-549 breast
CAKI-1 renal = tested on: CAKI-1 renal
COLO 205 colon = tested on: COLO 205 colon
DU-145 prostate = tested on: DU-145 prostate
EKVX NSCLC = tested on: EKVX NSCLC
HCC-2998 colon = tested on: HCC-2998 colon
HCT-116 colon = tested on: HCT-116 colon
HCT-15 colon = tested on: HCT-15 colon
HL-60(TB) leukemia = tested on: HL-60(TB) leukemia
HOP-62 NSCLC = tested on: HOP-62 NSCLC
HOP-92 NSCLC = tested on: HOP-92 NSCLC
HS 578T breast = tested on: HS 578T breast
HT29 colon = tested on: HT29 colon
IGROV1 ovarian = tested on: IGROV1 ovarian
K-562 leukemia = tested on: K-562 leukemia
KM12 colon = tested on: KM12 colon
LOX IMVI melanoma = tested on: LOX IMVI melanoma
M14 melanoma = tested on: M14 melanoma
MALME-3M melanoma = tested on: MALME-3M melanoma
MCF7 breast = tested on: MCF7 breast
MDA-MB-231 breast = tested on: MDA-MB-231 breast
MDA-MB-435 = tested on: MDA-MB-435
MDA-MB-468 breast = tested on: MDA-MB-468 breast
MOLT-4 leukemia = tested on: MOLT-4 leukemia
NCI-H226 lung = tested on: NCI-H226 lung
NCI-H23 lung = tested on: NCI-H23 lung
NCI-H460 lung = tested on: NCI-H460 lung
NCI-H522 lung = tested on: NCI-H522 lung
NCI/ADR-RES ovarian = tested on: NCI/ADR-RES ovarian
OVCAR-3 ovarian = tested on: OVCAR-3 ovarian
OVCAR-4 ovarian = tested on: OVCAR-4 ovarian
OVCAR-5 ovarian = tested on: OVCAR-5 ovarian
OVCAR-8 ovarian = tested on: OVCAR-8 ovarian
PC-3 prostate = tested on: PC-3 prostate
RPMI-8226 leukemia = tested on: RPMI-8226 leukemia
RXF 393 renal = tested on: RXF 393 renal
SF-268 CNS = tested on: SF-268 CNS
SF-295 CNS = tested on: SF-295 CNS
SF-539 CNS = tested on: SF-539 CNS
SK-MEL-2 melanoma = tested on: SK-MEL-2 melanoma
SK-MEL-28 melanoma = tested on: SK-MEL-28 melanoma
SK-MEL-5 melanoma = tested on: SK-MEL-5 melanoma
SK-OV-3 ovarian = tested on: SK-OV-3 ovarian
SN12C renal = tested on: SN12C renal
SNB-19 CNS = tested on: SNB-19 CNS
SNB-75 CNS = tested on: SNB-75 CNS
SR leukemia = tested on: SR leukemia
SW-620 colon = tested on: SW-620 colon
T-47D breast = tested on: T-47D breast
TK-10 renal = tested on: TK-10 renal
U251 CNS = tested on: U251 CNS
UACC-257 melanoma = tested on: UACC-257 melanoma
UACC-62 melanoma = tested on: UACC-62 melanoma
UO-31 renal = tested on: UO-31 renal

CN1CCN(c2ccc(Nc3nc(NCCNC(=O)c4ccc(C(F)(F)F)cc4)c4sccc4n3)cc2)CC1 showed a GI50 (786-0 renal) of 3.24 µM, a TGI (786-0 renal) of 13.1 µM and a GI50 (A498 renal) of 17.1 µM. It also gave a TGI (A498 renal) of 31 µM, a GI50 (A549 NSCLC) of 11.7 µM and a TGI (A549 NSCLC) of 30.8 µM. It also gave a GI50 (ACHN renal) of 13.4 µM, a TGI (ACHN renal) of 27.9 µM and a GI50 (BT-549 breast) of 12.3 µM. For the same compound, the TGI (BT-549 breast) was 25.1 µM, the GI50 (CAKI-1 renal) was 9.24 µM and the TGI (CAKI-1 renal) was 21.7 µM. It also gave a GI50 (COLO 205 colon) of 7.4 µM, a TGI (COLO 205 colon) of 22.6 µM and a GI50 (DU-145 prostate) of 14.2 µM. For the same compound, the TGI (DU-145 prostate) was 27.9 µM, the GI50 (EKVX NSCLC) was 13.9 µM and the TGI (EKVX NSCLC) was 29.2 µM. It also gave a GI50 (HCC-2998 colon) of 4.55 µM, a TGI (HCC-2998 colon) of 15.5 µM and a GI50 (HCT-116 colon) of 4.25 µM. It also gave a TGI (HCT-116 colon) of 15.2 µM, a GI50 (HCT-15 colon) of 3.33 µM and a TGI (HCT-15 colon) of 13.9 µM. It also gave a GI50 (HL-60(TB) leukemia) of 3.49 µM, a TGI (HL-60(TB) leukemia) of 15.8 µM and a GI50 (HOP-62 NSCLC) of 15.1 µM. The TGI (HOP-62 NSCLC) was 30.7 µM, the GI50 (HOP-92 NSCLC) was 4.66 µM and the TGI (HOP-92 NSCLC) was 18.9 µM. The GI50 (HS 578T breast) was 4.19 µM, the TGI (HS 578T breast) was 23.2 µM and the GI50 (HT29 colon) was 3.53 µM. For the same compound, the TGI (HT29 colon) was 12.6 µM, the GI50 (IGROV1 ovarian) was 12.9 µM and the TGI (IGROV1 ovarian) was 26 µM. The GI50 (K-562 leukemia) was 2.24 µM, the TGI (K-562 leukemia) was 8.8 µM and the GI50 (KM12 colon) was 14 µM. For the same compound, the TGI (KM12 colon) was 30.8 µM, the GI50 (LOX IMVI melanoma) was 2.66 µM and the TGI (LOX IMVI melanoma) was 8.84 µM. For the same compound, the GI50 (M14 melanoma) was 1.88 µM, the TGI (M14 melanoma) was 3.63 µM and the GI50 (MALME-3M melanoma) was 1.77 µM. The TGI (MALME-3M melanoma) was 3.16 µM, the GI50 (MCF7 breast) was 4.06 µM and the TGI (MCF7 breast) was 15.7 µM. The GI50 (MDA-MB-231 breast) was 3.72 µM, the TGI (MDA-MB-231 breast) was 14.4 µM and the GI50 (MDA-MB-435) was 3.5 µM. For the same compound, the TGI (MDA-MB-435) was 11 µM, the GI50 (MDA-MB-468 breast) was 2.26 µM and the TGI (MDA-MB-468 breast) was 9.44 µM. For the same compound, the GI50 (MOLT-4 leukemia) was 3.64 µM, the TGI (MOLT-4 leukemia) was 16.5 µM and the GI50 (NCI-H226 lung) was 14 µM. It also gave a TGI (NCI-H226 lung) of 29.8 µM, a GI50 (NCI-H23 lung) of 14.6 µM and a TGI (NCI-H23 lung) of 29.6 µM. The GI50 (NCI-H460 lung) was 13.3 µM, the TGI (NCI-H460 lung) was 28.7 µM and the GI50 (NCI-H522 lung) was 4.21 µM. For the same compound, the TGI (NCI-H522 lung) was 16.7 µM, the GI50 (NCI/ADR-RES ovarian) was 16.1 µM and the TGI (NCI/ADR-RES ovarian) was 39.5 µM. For the same compound, the GI50 (OVCAR-3 ovarian) was 14.4 µM, the TGI (OVCAR-3 ovarian) was 32 µM and the GI50 (OVCAR-4 ovarian) was 13.6 µM. The TGI (OVCAR-4 ovarian) was 48.1 µM, the GI50 (OVCAR-5 ovarian) was 15.1 µM and the TGI (OVCAR-5 ovarian) was 30.5 µM. The GI50 (OVCAR-8 ovarian) was 10.8 µM, the TGI (OVCAR-8 ovarian) was 28 µM and the GI50 (PC-3 prostate) was 10.4 µM. It also gave a TGI (PC-3 prostate) of 26.9 µM, a GI50 (RPMI-8226 leukemia) of 1.88 µM and a TGI (RPMI-8226 leukemia) of 4.54 µM. The GI50 (RXF 393 renal) was 2.67 µM, the TGI (RXF 393 renal) was 10.3 µM and the GI50 (SF-268 CNS) was 11.1 µM. It also gave a TGI (SF-268 CNS) of 31.4 µM, a GI50 (SF-295 CNS) of 3.52 µM and a TGI (SF-295 CNS) of 13.6 µM. For the same compound, the GI50 (SF-539 CNS) was 2.12 µM, the TGI (SF-539 CNS) was 4.6 µM and the GI50 (SK-MEL-2 melanoma) was 15.7 µM. The TGI (SK-MEL-2 melanoma) was 29.7 µM, the GI50 (SK-MEL-28 melanoma) was 2.13 µM and the TGI (SK-MEL-28 melanoma) was 3.99 µM. For the same compound, the GI50 (SK-MEL-5 melanoma) was 2.3 µM, the TGI (SK-MEL-5 melanoma) was 5.99 µM and the GI50 (SK-OV-3 ovarian) was 17.3 µM. For the same compound, the TGI (SK-OV-3 ovarian) was 33.4 µM, the GI50 (SN12C renal) was 12.9 µM and the TGI (SN12C renal) was 25.7 µM. The GI50 (SNB-19 CNS) was 14.2 µM, the TGI (SNB-19 CNS) was 27.5 µM and the GI50 (SNB-75 CNS) was 6.55 µM. For the same compound, the TGI (SNB-75 CNS) was 20.7 µM, the GI50 (SR leukemia) was 1.9 µM and the TGI (SR leukemia) was 5.21 µM. For the same compound, the GI50 (SW-620 colon) was 12.7 µM, the TGI (SW-620 colon) was 26.4 µM and the GI50 (T-47D breast) was 10.8 µM. For the same compound, the TGI (T-47D breast) was 31.1 µM, the GI50 (TK-10 renal) was 16.6 µM and the TGI (TK-10 renal) was 30.8 µM. The GI50 (U251 CNS) was 3.54 µM, the TGI (U251 CNS) was 13.8 µM and the GI50 (UACC-257 melanoma) was 1.75 µM. For the same compound, the TGI (UACC-257 melanoma) was 3.39 µM, the GI50 (UACC-62 melanoma) was 2.01 µM and the TGI (UACC-62 melanoma) was 4.79 µM. For the same compound, the GI50 (UO-31 renal) was 11.8 µM and the TGI (UO-31 renal) was 24.1 µM.
